In PubChem BioAssay AID2060506 (Molecular Pharmacology Branch, DTP, NCI, 2025):
Where “and” joins values, the source holds several entries; their conditions need not be identical. Equal entries are not always repeated.

Tested on: 598228-144-R-J1-PDC complex spheroid viability
Experiment: Anticancer human tumor 598228-144-R-J1-PDC patient-derived serous endometrial adenocarcinoma cell line growth inhibition [GQUAD]
Settings: for viability, T/C: stronger effect = lower value
Text: DNA G-quadruplex Stabilizer Agents in Combinations in Complex Spheroids
A high-throughput screen of multi-cell type tumor spheroids was designed to identify active combinations of DNA G-quadruplex stabilizer agents and targeted small molecules. Complex spheroids include a stromal component modeled by human endothelial cells (HUVEC) and fibroblasts modeled by human mesenchymal stem cells (MSCs). The concentration ranges selected for each drug and investigational agent were based upon clinically achievable concentrations if the clinical Cmax of the agent was known.
Compounds. The drugs and investigational agents: pidnarulex (CX-5461; NSC782164), APTO-253 (NSC789042), BRACO-19 (NSC847499), peposertib (NSC802822), ceralasertib (NSC780249), elimusertib (NSC800525), camonsertib (NSC841442), AZD-1390 (NSC803789), olaparib (NSC753686), talazoparib (NSC767125), ART-558 (NSC835418), sotorasib (NSC818433), MRTX-1133 (NSC836407), SN-38 (NSC673596), topotecan (NSC609699), etoposide (NSC141540), doxorubicin (NSC123127), gemcitabine (NSC613327), 5-fluorouracil (NSC19893), paclitaxel (NSC125973), vemurafenib (NSC761431), panobinostat (NSC761190), R-306465 (JNJ-16241199; NSC773264), adavosertib (NSC754352), TP-3654 (NSC805149), carboplatin (NSC241240), KSQ-4279 (NSC840948), and staurosporine (NSC755774) were obtained from the National Cancer Institute (NCI) Developmental Therapeutics Program Chemical Repository (34). The FDA-approved anticancer drug set is available from the NCI Developmental Therapeutics Program. […] The stock solutions were prepared in dimethyl sulfoxide (DMSO, Sigma-Aldrich, St. Louis, MO, cat. D2650) at 800-fold the tested concentration and stored at -70 degrees C prior to their use. All drugs and investigational agents were tested over a range starting from a high concentration at or near the clinical Cmax and decreasing in half-log increments. If the clinical Cmax for an agent had not been determined, the highest concentration tested was 10 microM.
2.3 Cell Culture. All cells were maintained in an incubator at 37 degrees C and 5% CO2 with 95% humidity. The PDC lines were cultured according to standard operating procedures established by the NCI PDMR. All PDCs were thawed and cultured in Matrigel-coated flasks prepared with a working solution of 1X Ham's F-12 nutrient mix, without supplementation (Invitrogen, cat. 11765054), 100 U/mL penicillin-streptomycin (Invitrogen, cat. 15140122), and 2.5% Matrigel (Corning Inc., cat. 354248) for the first three passages. The 857933-349-R-J2-PDC line was cultured in 6C/Colon 1B media, which includes advanced DMEM/F-12 (Thermo Fisher Scientific, cat. 12634028), 10 mM HEPES (Thermo Fisher Scientific, cat. 15630080), 1X GlutaMAX supplement (Thermo Fisher Scientific, cat. 35050061), 0.1 mg/mL primocin (InvivoGen, cat. ant-pm-2), 10% defined fetal bovine serum, heat inactivated (HyClone Laboratories Inc., cat. SH30070.03HI), 50% L-WRN conditioned media (ATCC, cat. CRL-3276), 1.25 mM N-Acetyl-L-cysteine (Sigma-Aldrich, cat. A9165), 10 mM nicotinamide (Sigma-Aldrich, cat. N0636), 1X B-27 supplement (Thermo Fisher Scientific, cat. 17504044), 1X N-2 supplement (Thermo Fisher Scientific, cat. 17502048), 10 microM Y-27632 dihydrochloride (Tocris Bioscience, cat. 1254), and 50 ng/mL human EGF recombinant protein (Thermo Fisher Scientific, cat. PHG0311). The 485176-168-R4-J1-PDC line was cultured in Panc media, which includes all 6C/Colon 1B media components plus 100 ng/mL human FGF-10 (Thermo Fisher Scientific, cat. 100-26), 500 nM SB-431542 (Selleckchem, cat. S1067), and gastrin (Tocris, cat. 3006).
[…]
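Note: spheroids exposed to the agents for one week before reading.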
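Throughout, for viability, T/C: percent of vehicle DMSO control viability so 100% = untreated growth.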

Structure (SMILES): CC1COCCN1c1cc(-c2ccnn2C)c2ccnc(-c3ccn[nH]3)c2n1 (configuration not stated) + Cc1cnc(CNC(=O)c2c(=O)c3ccc(N4CCCN(C)CC4)nc3n3c2sc2ccccc23)cn1
- IC50 (curve of first compound, second compound 0.0316 µM): 0.0565 µM
- IC50 (curve of first compound, second compound 0.1 µM): < 0.0316 µM
- IC50 (curve of first compound, second compound 0.316 µM): 0.066 µM
- IC50 (curve of first compound, second compound 1 µM): 0.0387 µM
- IC50 (curve of first compound, second compound 3.16 µM): < 0.0316 µM
- IC50 (curve of first compound, second compound 10 µM): < 0.0316 µM
- viability, T/C (second compound 0.0316 µM, first compound 0.0316 µM): 52%
- viability, T/C (second compound 0.0316 µM, first compound 0.1 µM): 48.3%
- viability, T/C (second compound 0.0316 µM, first compound 0.316 µM): 44.7%
- viability, T/C (second compound 0.0316 µM, first compound 1 µM): 29.7%
- viability, T/C (second compound 0.0316 µM, first compound 3.16 µM): 33.5%
- viability, T/C (second compound 0.0316 µM, first compound 10 µM): 30.9%
- viability, T/C (second compound 0.1 µM, first compound 0.0316 µM): 47.9%
- viability, T/C (second compound 0.1 µM, first compound 0.1 µM): 38.4%
- viability, T/C (second compound 0.1 µM, first compound 0.316 µM): 43%
- viability, T/C (second compound 0.1 µM, first compound 1 µM): 33.2%
- viability, T/C (second compound 0.1 µM, first compound 3.16 µM): 38.3%
- viability, T/C (second compound 0.1 µM, first compound 10 µM): 25.8%
- viability, T/C (second compound 0.316 µM, first compound 0.0316 µM): 58.2%
- viability, T/C (second compound 0.316 µM, first compound 0.1 µM): 40.6%
- viability, T/C (second compound 0.316 µM, first compound 0.316 µM): 42.9%
- viability, T/C (second compound 0.316 µM, first compound 1 µM): 32.5%
- viability, T/C (second compound 0.316 µM, first compound 3.16 µM): 39.1%
- viability, T/C (second compound 0.316 µM, first compound 10 µM): 21.3%
- viability, T/C (second compound 1 µM, first compound 0.0316 µM): 52.3%
- viability, T/C (second compound 1 µM, first compound 0.1 µM): 42%
- viability, T/C (second compound 1 µM, first compound 0.316 µM): 43.2%
- viability, T/C (second compound 1 µM, first compound 1 µM): 33%
- viability, T/C (second compound 1 µM, first compound 3.16 µM): 28.2%
- viability, T/C (second compound 1 µM, first compound 10 µM): 22.2%
- viability, T/C (second compound 3.16 µM, first compound 0.0316 µM): 45.8%
- viability, T/C (second compound 3.16 µM, first compound 0.1 µM): 26.1%
- viability, T/C (second compound 3.16 µM, first compound 0.316 µM): 33.6%
- viability, T/C (second compound 3.16 µM, first compound 1 µM): 23.4%
- viability, T/C (second compound 3.16 µM, first compound 3.16 µM): 20.7%
- viability, T/C (second compound 3.16 µM, first compound 10 µM): 4.32%
- viability, T/C (second compound 10 µM, first compound 0.0316 µM): 23.5%
- viability, T/C (second compound 10 µM, first compound 0.1 µM): 17.4%
- viability, T/C (second compound 10 µM, first compound 0.316 µM): 8.76%
- viability, T/C (second compound 10 µM, first compound 1 µM): 6.24%
- viability, T/C (second compound 10 µM, first compound 3.16 µM): 0.97%
- viability, T/C (second compound 10 µM, first compound 10 µM): 8.07%

Structure (SMILES): Cc1cccc(N(C)C(=O)C2C(O)CCN2c2nc(C)cc(C(F)(F)F)c2C#N)c1 (configuration not stated)
- viability, T/C (compound 0.0316 µM): 108% and 89.4% and 98.2%
- viability, T/C (compound 0.1 µM): 92.7% and 78% and 99.4%
- viability, T/C (compound 0.316 µM): 97.2% and 122% and 88.8%
- viability, T/C (compound 1 µM): 99.8% and 91.5% and 99.9%
- viability, T/C (compound 3.16 µM): 97.1% and 94.7% and 111%
- viability, T/C (compound 10 µM): 93.6% and 88.1% and 102%
- IC50 (curve of compound): > 10 µM

Structure (SMILES): CC(C)n1c(=O)n(C)c2cnc3cc(F)c(-c4ccc(OCCCN5CCCCC5)nc4)cc3c21
- viability, T/C (compound 0.0316 µM): 109% and 90.8% and 106%
- viability, T/C (compound 0.1 µM): 91.9% and 85.2% and 84.2%
- viability, T/C (compound 0.316 µM): 101% and 92.4% and 109%
- viability, T/C (compound 1 µM): 115% and 111% and 96.7%
- viability, T/C (compound 3.16 µM): 94.2% and 74.5% and 67.8%
- viability, T/C (compound 10 µM): 60.8% and 56.7% and 68.5%
- IC50 (curve of compound): > 10 µM

Structure (SMILES): COc1cc(C2c3cc4c(cc3C(OC3OC5COC(C)OC5C(O)C3O)C3COC(=O)C23)OCO4)cc(OC)c1O (configuration not stated)
- viability, T/C (compound 0.0316 µM): 89.4% and 97.4% and 93.6%
- viability, T/C (compound 0.1 µM): 96.5% and 82.4% and 72.5%
- viability, T/C (compound 0.316 µM): 74.2% and 76.2% and 74.6%
- viability, T/C (compound 1 µM): 78.1% and 70.3% and 58.1%
- viability, T/C (compound 3.16 µM): 64.4% and 59.9% and 78.7%
- viability, T/C (compound 10 µM): 48% and 46% and 36%
- IC50 (curve of compound): 9.17 µM and 7.57 µM and 6.25 µM

Structure (SMILES): CCCS(=O)(=O)Nc1ccc(F)c(C(=O)c2c[nH]c3ncc(-c4ccc(Cl)cc4)cc23)c1F
- viability, T/C (compound 0.0316 µM): 122% and 103% and 107%
- viability, T/C (compound 0.1 µM): 93.3% and 86.4% and 114%
- viability, T/C (compound 0.316 µM): 104% and 110% and 102%
- viability, T/C (compound 1 µM): 106% and 110% and 130%
- viability, T/C (compound 3.16 µM): 100% and 90.5% and 112%
- viability, T/C (compound 10 µM): 44.2% and 26.5% and 30.6%
- IC50 (curve of compound): 8.88 µM and 6.56 µM and 7.61 µM

Structure (SMILES): CC1COCCN1c1cc(C2(S(C)(=N)=O)CC2)nc(-c2ccnc3[nH]ccc23)n1 (configuration not stated)
- viability, T/C (compound 0.0316 µM): 91.8% and 116% and 77.8%
- viability, T/C (compound 0.1 µM): 83.7% and 108% and 99.1%
- viability, T/C (compound 0.316 µM): 88.9% and 94.8% and 83.4%
- viability, T/C (compound 1 µM): 77.9% and 77.5% and 88.2%
- viability, T/C (compound 3.16 µM): 60.3% and 46.7% and 97.7%
- viability, T/C (compound 10 µM): 39.3% and 49.6% and 47.7%
- IC50 (curve of compound): 5.53 µM and 5.37 µM and 9.39 µM

Structure (SMILES): Cc1[nH]c2ccccc2c1CCNCc1ccc(/C=C/C(=O)NO)cc1
- viability, T/C (compound 0.000999 µM): 109% and 102% and 101%
- viability, T/C (compound 0.00316 µM): 97.9% and 99.4% and 93.7%
- viability, T/C (compound 0.00999 µM): 108% and 97.5% and 99%
- viability, T/C (compound 0.0316 µM): 83.5% and 70.5% and 71.7%
- viability, T/C (compound 0.0999 µM): 27.5% and 29.3% and 38.2%
- viability, T/C (compound 0.316 µM): 0.72% and 0.83% and 0.61%
- IC50 (curve of compound): 0.0631 µM and 0.0565 µM and 0.0673 µM

Structure (SMILES): CN(C)c1ccc(Nc2c3ccc(NC(=O)CCN4CCCC4)cc3nc3cc(NC(=O)CCN4CCCC4)ccc23)cc1
- viability, T/C (compound 0.0316 µM): 102% [middle of 12 runs]
- viability, T/C (compound 0.1 µM): 106% [middle of 12 runs]
- viability, T/C (compound 1 µM): 101% [middle of 12 runs]
- viability, T/C (compound 3.16 µM): 99.7% [middle of 12 runs]
- viability, T/C (compound 10 µM): 90% [middle of 12 runs]
- IC50 (compound alone, run of 03/26/2024): > 10 µM

Structure (SMILES): Cn1ncnc1[C@H]1c2n[nH]c(=O)c3cc(F)cc(c23)N[C@@H]1c1ccc(F)cc1
- viability, T/C (compound 0.000999 µM): 102% and 87.8% and 113%
- viability, T/C (compound 0.00316 µM): 108% and 103% and 91.4%
- viability, T/C (compound 0.00999 µM): 73.5% and 93.9% and 92.7%
- viability, T/C (compound 0.0316 µM): 101% and 75.7% and 85.6%
- viability, T/C (compound 0.0999 µM): 90.7% and 71.7% and 88%
- viability, T/C (compound 0.316 µM): 73.6% and 88.2% and 69.7%
- IC50 (curve of compound): > 0.316 µM
